Data from patent publication US9695155B2, “Herbicidal substituted pyrimidinyloxy benzene compounds” (E. I. DU PONT DE NEMOURS AND COMPANY, priority 2013, dated 2017).

Experiments:
[1] = test system: sedge, umbrella; assay: Test B flooded paddy test; format: in vivo, Cyperus difformis; conditions: Flood, 250 g ai/ha; 0 to 100 scale where 0 is no effect and 100 is complete control
Method in brief: (§1)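 Flooded to 3 cm at the 2-leaf stage, pots received compound through the paddy water and were kept at that depth under greenhouse conditions. After 13–15 days, effect was rated by eye relative to controls, 0 = none and 100 = complete control.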

[2] = test system: wheat; assay: Test A postemergence; format: in vivo, Triticum aestivum
Method in brief: (§2)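 Visual injury scored 0–100 (100 = complete control) against untreated controls about 10 days after treatment in a greenhouse. Test chemicals, formulated with surfactant in non-phytotoxic solvent, were sprayed on soil preemergence or on 2-10 cm, one- to two-leaf plants postemergence.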

[3] = test system: giant foxtail; assay: Test A postemergence; format: in vivo, Setaria faberii
Method in brief: as §2

[4] = test system: corn; assay: Test A preemergence; format: in vivo, Zea mays
Method in brief: as §2

[5] = test system: rice; assay: Test B flooded paddy test; format: in vivo, Oryza sativa; conditions: Flood, 250 g ai/ha; 0 to 100 scale where 0 is no effect and 100 is complete control
Method in brief: as §1

[6] = test system: pigweed; assay: Test A preemergence; format: in vivo, Amaranthus retroflexus
Method in brief: as §2

[7] = test system: morningglory; assay: Test A preemergence; format: in vivo, Ipomoea spp.
Method in brief: as §2

[8] = test system: pigweed; assay: Test A postemergence; format: in vivo, Amaranthus retroflexus
Method in brief: as §2

[9] = test system: wheat; assay: Test A preemergence; format: in vivo, Triticum aestivum
Method in brief: as §2

[10] = test system: morningglory; assay: Test A postemergence; format: in vivo, Ipomoea spp.
Method in brief: as §2

[11] = test system: velvetleaf; assay: Test A preemergence; format: in vivo, Abutilon theophrasti
Method in brief: as §2

[12] = test system: corn; assay: Test A postemergence; format: in vivo, Zea mays
Method in brief: as §2

[13] = test system: barnyardgrass; assay: Test A postemergence; format: in vivo, Echinochloa crus-galli
Method in brief: as §2

[14] = test system: barnyardgrass; assay: Test B flooded paddy test; format: in vivo, Echinochloa crus-galli; conditions: Flood, 250 g ai/ha; 0 to 100 scale where 0 is no effect and 100 is complete control
Method in brief: as §1

[15] = test system: barnyardgrass; assay: Test A preemergence; format: in vivo, Echinochloa crus-galli
Method in brief: as §2

[16] = test system: Heteranthera limosa; assay: Test B flooded paddy test; format: in vivo; conditions: Flood, 250 g ai/ha; 0 to 100 scale where 0 is no effect and 100 is complete control
Method in brief: as §1

[17] = test system: velvetleaf; assay: Test A postemergence; format: in vivo, Abutilon theophrasti
Method in brief: as §2

[18] = test system: giant foxtail; assay: Test A preemergence; format: in vivo, Setaria faberii
Method in brief: as §2

[19] = test system: large (Lg) crabgrass; assay: Test A preemergence; format: in vivo, Digitaria sanguinalis
Method in brief: as §2

[20] = test system: large (Lg) crabgrass; assay: Test A postemergence; format: in vivo, Digitaria sanguinalis
Method in brief: as §2

[21] = 125 g ai/ha, 0 to 100 scale where 0 is no effect and 100 is complete control
[22] = 500 g ai/ha, 0 to 100 scale, 0 no effect, 100 complete control
[23] = 500 g ai/ha, 0 to 100 scale, 0 no effect, 100 complete control, approx. 10 days
[24] = 125 g ai/ha, 0 to 100 scale, 0 no effect, 100 complete control
[25] = 500 g ai/ha, 0 to 100 scale where 0 is no effect and 100 is complete control

Structure (SMILES): FC(F)(F)c1ccn(-c2ccccc2Oc2ncc(Br)cn2)n1 [Compound 1]
- Plant response rating, Sedge, Umbrella [1]: 0
- Plant response rating, Wheat [2, 21]: 0
- Plant response rating, Wheat [2, 22]: 0
- Plant response rating, Foxtail, Giant [3, 21]: 10
- Plant response rating, Foxtail, Giant [3, 22]: 60
- Corn plant response rating [4, 21]: 0
- Corn plant response rating [4, 23]: 0
- Plant response rating, Rice [5]: 0
- Pigweed plant response rating [6, 21]: 60
- Pigweed plant response rating [6, 23]: 100
- Morningglory plant response rating [7, 21]: 0
- Morningglory plant response rating [7, 23]: 0
- Plant response rating, Pigweed [8, 21]: 50
- Plant response rating, Pigweed [8, 22]: 100
- Wheat plant response rating [9, 21]: 0
- Wheat plant response rating [9, 23]: 0
- Plant response rating, Morningglory [10, 21]: 0
- Plant response rating, Morningglory [10, 22]: 20
- Velvetleaf plant response rating [11, 21]: 0
- Velvetleaf plant response rating [11, 23]: 20
- Plant response rating, Corn [12, 21]: 0
- Plant response rating, Corn [12, 22]: 10
- Plant response rating, Barnyardgrass [13, 21]: 10
- Plant response rating, Barnyardgrass [13, 22]: 30
- Plant response rating, Barnyardgrass [14]: 0
- Barnyardgrass plant response rating [15, 21]: 20
- Barnyardgrass plant response rating [15, 23]: 70
- Plant response rating, Ducksalad [16]: 0
- Plant response rating, Velvetleaf [17, 21]: 20
- Plant response rating, Velvetleaf [17, 22]: 70
- Foxtail, Giant plant response rating [18, 21]: 60
- Foxtail, Giant plant response rating [18, 23]: 100
- Crabgrass, Large plant response rating [19, 21]: 50
- Crabgrass, Large plant response rating [19, 23]: 100
- Plant response rating, Crabgrass, Large [20, 21]: 20
- Plant response rating, Crabgrass, Large [20, 22]: 50

Structure (SMILES): CNN=Cc1cccc(Oc2ncc(Cl)cn2)c1-n1cc(Br)cn1 [Compound 289]
- Plant response rating, Sedge, Umbrella [1]: 0
- Plant response rating, Wheat [2, 24]: 0
- Plant response rating, Wheat [2, 25]: 0
- Plant response rating, Foxtail, Giant [3, 24]: 0
- Plant response rating, Foxtail, Giant [3, 25]: 30
- Corn plant response rating (0 to 100 scale) ([4]; 125 g ai/ha): 0
- Corn plant response rating [4, 25]: 0
- Plant response rating, Rice [5]: 0
- Pigweed plant response rating (0 to 100 scale) ([6]; 125 g ai/ha): 20
- Pigweed plant response rating [6, 25]: 100
- Morningglory plant response rating (0 to 100 scale) ([7]; 125 g ai/ha): 0
- Morningglory plant response rating [7, 25]: 0
- Plant response rating, Pigweed [8, 24]: 100
- Plant response rating, Pigweed [8, 25]: 100
- Wheat plant response rating (0 to 100 scale) ([9]; 125 g ai/ha): 0
- Wheat plant response rating [9, 25]: 0
- Plant response rating, Morningglory [10, 24]: 20
- Plant response rating, Morningglory [10, 25]: 50
- Velvetleaf plant response rating (0 to 100 scale) ([11]; 125 g ai/ha): 0
- Velvetleaf plant response rating [11, 25]: 10
- Plant response rating, Corn [12, 24]: 0
- Plant response rating, Corn [12, 25]: 10
- Plant response rating, Barnyardgrass [13, 24]: 0
- Plant response rating, Barnyardgrass [13, 25]: 20
- Plant response rating, Barnyardgrass [14]: 0
- Barnyardgrass plant response rating (0 to 100 scale, 0 is no effect, 100 is complete control) ([15]; 125 g ai/ha): 0
- Barnyardgrass plant response rating [15, 25]: 20
- Plant response rating, Ducksalad [16]: 0
- Plant response rating, Velvetleaf [17, 24]: 10
- Plant response rating, Velvetleaf [17, 25]: 40
- Foxtail, Giant plant response rating (0 to 100 scale) ([18]; 125 g ai/ha): 0
- Foxtail, Giant plant response rating [18, 25]: 10
- Crabgrass, Large plant response rating (0 to 100 scale) ([19]; 125 g ai/ha): 0
- Crabgrass, Large plant response rating [19, 25]: 10
- Plant response rating, Crabgrass, Large [20, 24]: 0
- Plant response rating, Crabgrass, Large [20, 25]: 20

Structure (SMILES): N#Cc1cnc(Oc2cccc(C#N)c2-n2cc(Br)cn2)nc1 [Compound 214]
- Plant response rating, Sedge, Umbrella [1]: 0
- Wheat plant response rating [2, 21]: 0
- Plant response rating, Wheat [2, 25]: 0
- Foxtail, Giant plant response rating [3, 21]: 0
- Plant response rating, Foxtail, Giant [3, 25]: 0
- Corn plant response rating (0 to 100 scale) ([4]; 125 g ai/ha): 0
- Corn plant response rating [4, 25]: 0
- Plant response rating, Rice [5]: 0
- Pigweed plant response rating (0 to 100 scale) ([6]; 125 g ai/ha): 0
- Pigweed plant response rating [6, 25]: 0
- Morningglory plant response rating (0 to 100 scale) ([7]; 125 g ai/ha): 0
- Morningglory plant response rating [7, 25]: 0
- Pigweed plant response rating [8, 21]: 0
- Plant response rating, Pigweed [8, 25]: 0
- Wheat plant response rating (0 to 100 scale) ([9]; 125 g ai/ha): 0
- Wheat plant response rating [9, 25]: 0
- Morningglory plant response rating [10, 21]: 0
- Plant response rating, Morningglory [10, 25]: 0
- Velvetleaf plant response rating (0 to 100 scale) ([11]; 125 g ai/ha): 0
- Velvetleaf plant response rating [11, 25]: 0
- Corn plant response rating [12, 21]: 0
- Plant response rating, Corn [12, 25]: 0
- Barnyardgrass plant response rating [13, 21]: 0
- Plant response rating, Barnyardgrass [13, 25]: 0
- Plant response rating, Barnyardgrass [14]: 0
- Barnyardgrass plant response rating (0 to 100 scale, 0 is no effect, 100 is complete control) ([15]; 125 g ai/ha): 0
- Barnyardgrass plant response rating [15, 25]: 0
- Plant response rating, Ducksalad [16]: 0
- Velvetleaf plant response rating [17, 21]: 0
- Plant response rating, Velvetleaf [17, 25]: 0
- Foxtail, Giant plant response rating (0 to 100 scale) ([18]; 125 g ai/ha): 0
- Foxtail, Giant plant response rating [18, 25]: 0
- Crabgrass, Large plant response rating (0 to 100 scale) ([19]; 125 g ai/ha): 0
- Crabgrass, Large plant response rating [19, 25]: 0
- Crabgrass, Large plant response rating [20, 21]: 0
- Plant response rating, Crabgrass, Large [20, 25]: 0

Structure (SMILES): O=Cc1cccc(Oc2ncc(Cl)cn2)c1-n1cc(C(F)(F)F)cn1 [Compound 171]
- Plant response rating, Sedge, Umbrella [1]: 0
- Wheat plant response rating [2, 21]: 0
- Plant response rating, Wheat [2, 25]: 0
- Foxtail, Giant plant response rating [3, 21]: 0
- Plant response rating, Foxtail, Giant [3, 25]: 0
- Plant response rating, Corn [4, 21]: 0
- Corn plant response rating [4, 25]: 0
- Plant response rating, Rice [5]: 0
- Pigweed plant response rating (0 to 100 scale) ([6]; 125 g ai/ha): 90
- Pigweed plant response rating [6, 25]: 100
- Morningglory plant response rating (0 to 100 scale) ([7]; 125 g ai/ha): 0
- Morningglory plant response rating [7, 25]: 0
- Pigweed plant response rating [8, 21]: 100
- Plant response rating, Pigweed [8, 25]: 100
- Wheat plant response rating (0 to 100 scale) ([9]; 125 g ai/ha): 0
- Wheat plant response rating [9, 25]: 0
- Morningglory plant response rating [10, 21]: 0
- Plant response rating, Morningglory [10, 25]: 0
- Velvetleaf plant response rating (0 to 100 scale) ([11]; 125 g ai/ha): 30
- Velvetleaf plant response rating [11, 25]: 70
- Corn plant response rating [12, 21]: 0
- Plant response rating, Corn [12, 25]: 0
- Barnyardgrass plant response rating [13, 21]: 0
- Plant response rating, Barnyardgrass [13, 25]: 0
- Plant response rating, Barnyardgrass [14]: 0
- Plant response rating, Barnyardgrass [15, 21]: 20
- Barnyardgrass plant response rating [15, 25]: 60
- Plant response rating, Ducksalad [16]: 0
- Velvetleaf plant response rating [17, 21]: 40
- Plant response rating, Velvetleaf [17, 25]: 70
- Plant response rating, Foxtail, Giant [18, 21]: 0
- Foxtail, Giant plant response rating [18, 25]: 0
- Plant response rating, Crabgrass, Large [19, 21]: 0
- Crabgrass, Large plant response rating [19, 25]: 0
- Crabgrass, Large plant response rating [20, 21]: 0
- Plant response rating, Crabgrass, Large [20, 25]: 0

Structure (SMILES): Brc1cnc(Oc2ccccc2-n2cc(Br)c(Br)n2)nc1 [Compound 24]
- Plant response rating, Sedge, Umbrella [1]: 60
- Plant response rating, Wheat [2, 21]: 0
- Plant response rating, Wheat [2, 22]: 0
- Plant response rating, Foxtail, Giant [3, 21]: 0
- Plant response rating, Foxtail, Giant [3, 22]: 0
- Plant response rating, Corn [4, 21]: 0
- Corn plant response rating [4, 23]: 0
- Plant response rating, Rice [5]: 35
- Plant response rating, Pigweed [6, 21]: 0
- Pigweed plant response rating [6, 23]: 0
- Plant response rating, Morningglory [7, 21]: 0
- Morningglory plant response rating [7, 23]: 0
- Plant response rating, Pigweed [8, 21]: 0
- Plant response rating, Pigweed [8, 22]: 60
- Plant response rating, Wheat [9, 21]: 0
- Wheat plant response rating [9, 23]: 0
- Plant response rating, Morningglory [10, 21]: 0
- Plant response rating, Morningglory [10, 22]: 0
- Plant response rating, Velvetleaf [11, 21]: 0
- Velvetleaf plant response rating [11, 23]: 0
- Plant response rating, Corn [12, 21]: 0
- Plant response rating, Corn [12, 22]: 0
- Plant response rating, Barnyardgrass [13, 21]: 0
- Plant response rating, Barnyardgrass [13, 22]: 0
- Plant response rating, Barnyardgrass [14]: 0
- Plant response rating, Barnyardgrass [15, 21]: 0
- Barnyardgrass plant response rating [15, 23]: 0
- Plant response rating, Ducksalad [16]: 0
- Plant response rating, Velvetleaf [17, 22]: 0
- Plant response rating, Foxtail, Giant [18, 21]: 0
- Foxtail, Giant plant response rating [18, 23]: 0
- Plant response rating, Crabgrass, Large [19, 21]: 0
- Crabgrass, Large plant response rating [19, 23]: 0
- Plant response rating, Crabgrass, Large [20, 21]: 0
- Plant response rating, Crabgrass, Large [20, 22]: 0
